Laboratory results: patent US5849863A, “Cytolytic bradykinin antagonists” (University of Colorado, priority 1995, dated 1998)
No end group written: not given here.

Legend:
[1] = tested on: Calcium flux in response to CCK; experiment: Calcium flux assay, response to CCK or gastrin; assay type: cell-based
Description: (§1) Briefly, mechanically dispersed single cell suspensions of plateau phase cells (7 days after splitting) were suspended in 20 mM HEPES/BSS buffer (20 mM Hepes/140 mM NaCl/5mM KCI/1 mM MgCl2 /5 mM Glucose) adjusted to pH 6,8 at 37° C. The acetoxymethyl ester form of Indo-1 (Indo-AM) at 5 μM was incubated with the cells for 30 min at 37° C. and then diluted with 1:1 with 20 mM HEPES/BSS buffer, pH 7.4 to raise the final pH to 7.1 followed by a second 30-min incubation at 37° C.
(§2) UV excitation (80 mW at 360 nm) was delivered by a model INNOVA 90/5 argon ion laser (Coherent, Palo Alto, Calif.). […] Thus, the ratio of the 410 nm fluorescence/490 nm fluorescence constitutes a measure of the changes in calcium ions liberated form intracellular stores (Endoplasmic reticulum) in response to various stimuli. Viable, loaded cells were distinguished by the machine form debris, dead cells, and unloaded cells by forward angle and 90° light scatter and 490 nm fluorescence. […] Data were collected by the MDADS computer including 410 nm and 490 nm fluorescence intensities and the ratio of 410/490 fluorescence intensity was secured as a function of time. […] The data were analyzed by a program developed by Philip Jewett.

SCLC cell line SHP-77 = experiment: Colorimetric MTT assay, growth of SCLC cell line SHP-77; assay type: cell-based, human
Description: (§3) The effectiveness of the antagonist compounds in inhibiting cancer cell growth in vitro was determined using a panel of human lung cancer cell lines: SCLC--SHP77, H345 and NSCLC--A549, H450; breast carcinoma McF7, normal human epithelial BEAS and normal human skin fibroblast FS 15 were used to study the specificity and cytotoxicity of the BK antagonist dimers. Cell lines were treated with various concentrations of dimers for 5 to 7 days and cell viability were measured with routine MTT assay. Cells treated with BK dimers were also be evaluated for apoptosis using our newly developed cytometric technique.
Cellular growth and survival was measured by a rapid colorimetric assay, based on the tetrazolium salt MTT, (3-(4,5-dimethylthiazol-2-yl)-2,5-diphenyl tetrazolium bromide), developed by Mosmann (J. of Immun. Methods, 65, 55-63, 1983) with minor modifications. Briefly, 1,000 normal lung fibroblasts or normal epithelial BEAS-2B cells, 1,000 or 5,000 viable NSCLC cell and 10,000 viable SCLC cell were plated in a 100 μl volume of growth medium in 96 well flat-bottomed microtiter plates. The cells were allowed to recover overnight. Bradykinin antagonists at various concentrations were added to the cells in triplicates and the plates were incubated at 37° C., 5% CO2 with 100% humidity. […] Absorbance at 490 nm was immediately determined using a scannning multiwell plate reader. […]

SCLC cell lines [2] = experiment: Growth of SCLC cell lines (MTT assay); assay type: cell-based, human; conditions: result in words
Description: as §3
Cellular growth and survival was measured by a rapid colorimetric assay, based on the tetrazolium salt MTT, (3-(4,5-dimethylthiazol-2-yl)-2,5-diphenyl tetrazolium bromide), developed by Mosmann (J. of Immun. Methods, 65, 55-63, 1983) with minor modifications. Briefly, 1,000 normal lung fibroblasts or normal epithelial BEAS-2B cells, 1,000 or 5,000 viable NSCLC cell and 10,000 viable SCLC cell were plated in a 100 μl volume of growth medium in 96 well flat-bottomed microtiter plates. The cells were allowed to recover overnight. Bradykinin antagonists at various concentrations were added to the cells in triplicates and the plates were incubated at 37° C., 5% CO2 with 100% humidity. […] Absorbance at 490 nm was immediately determined using a scannning multiwell plate reader.

SCLC cell lines [3] = experiment: Apoptosis in SCLC / lung cancer cells; assay type: cell-based, human; conditions: inhibitory concentrations; data not shown
Stability in plasma = assay type: in vitro ADME
[4] = tested on: Calcium flux in response to BK; experiment: Calcium flux assay, response to BK; assay type: cell-based; conditions: read-out: IC50 Ca2+ (BK)
Description: as §1, §2

rat uterus = conditions: agonist reference value; cited from earlier work
[5] = tested on: intracellular Ca++ release, human lung cancer cell lines; conditions: Bunn et al. 1992; cited from earlier work
guinea pig ileum = conditions: agonist reference value; cited from earlier work

Row | stable in plasma (Stability in plasma) | half-life (Stability in plasma; stability in plasma, read-out: Plasma t1/2) | IC50 [4] | Compound | % Inhibition CCK Ca2+ [1] | effect on SCLC growth (SCLC cell line SHP-77; concentration up to 40 μM, SHP-77) | IC50 (SCLC cell line SHP-77; growth of SCLC cell line SHP-77) | growth inhibition, SCLC cell lines (SCLC cell lines [2]) | apoptotic response in SCLC cell lines (SCLC cell lines [3]) | pD2 (negative logarithm of the dose of bradykinin that causes half-maximal contraction) (rat uterus) | stimulation of intracellular Ca++ release [5] | pD2 (negative logarithm of the dose of bradykinin that causes half-maximal contraction) (guinea pig ileum)
1 | stable in plasma | > 24 h | 0.01 µM | NC(N)=NCCC[C@@H](N)C(=O)N[C@@H](CCCN=C(N)N)C(=O)N1CCC[C@H]1C(=O)N1C[C@H](O)C[C@H]1C(=O)NCC(=O)N[C@@H](Cc1cccs1)C(=O)N[C@@H](CO)C(=O)N1Cc2ccccc2C[C@@H]1C(=O)N1[C@H](C(=O)N[C@@H](CCCN=C(N)N)C(=O)O)C[C@@H]2CCCC[C@@H]21 [Compound B116] | 0% | little effect | > 40 µM | no growth inhibition | no growth inhibition or apoptotic response | – | – | –
2 | – | – | – | RPPGFSPFR [bradykinin, Arg^1 -Pro^2 -Pro^3 -Gly^4 -Phe^5 -Ser^6 -Pro^7 Phe^8 -Arg^9] | – | – | – | – | – | 7.9 | most potent peptide stimulant of intracellular Ca^++ release | 7.4
